Data taken from patent publication US11401247B2, “Thiazole-5-carboxylic acid derivative and preparation method and use thereof” (XIANGBEI WELMAN PHARMACEUTICAL CO., LTD, priority 2018, dated 2022).
Where two headings read alike, the source gives them in different places.

What was measured:
[1] = system: hyperuricemia rats; test: pharmacodynamic screening in rat hyperuricemia model (exogenous uric acid administered, uric acid decomposition inhibited); assay type: in vivo, SD rats; conditions: for Serum uric acid level, Value after 3 h of drug administration: 3 h after first administration, model group 174.4 ± 39.9, blank 53.9 ± 12.8; for uric acid-lowering effect (in words): 3 h after drug administration, febuxostat and ethyl ester 14 mg/kg oral; for uric acid-lowering effect (in words) / p, uric acid level 3 h after drug administration compared with the blank group: F compounds 10 mg/kg; for p, uric acid level 3 h after drug administration compared with the blank group: febuxostat 14 mg/kg oral
[2] = in vivo; conditions: mouse, po
[3] = system: hyperuricemia rats; test: dose-effect relationship study in rat hyperuricemia model; assay type: in vivo, SD rats; conditions: 3 h after first administration, model group 226.2 ± 35.2, blank 37.4 ± 5.1
Procedure: In order to further study the pharmacological activity of the compounds of the present disclosure, as well as the relationship between the activity and the dose, this example selected several compounds of the present disclosure to conduct a dose-effect relationship study in a rat model, in which exogenous uric acid was administered and uric acid decomposition was inhibited simultaneously. A positive drug was used as a control.
1. Experimental animals: Male SPF grade SD rats weighing 110-150 grams. […] The animals were free to drink and eat. All cages were sterilized at 121° C., feed was sterilized by irradiation, and water was sterilized purified water.
2. Experimental drugs: F-1C, F-2C, F-3A, 1.0 g for each compound; febuxostat (positive drug) 1.0 g; febuxostat ethyl ester (ethyl 2-[3-cyano-4-isobutoxyphenyl]-4-methylthiazole-5-carboxylate) 1.0 g;
3.1 Formulation of F-1C, F-2C, F-3A: Tor each of the compounds, take 100 mg, add 20 ml of 0.5% sodium carboxymethyl cellulose and grind, and then dilute to 100 ml.
3.2 Take 100 mg of febuxostat, add 20 ml of 0.5% sodium carboxymethyl cellulose and grind, and then dilute to 100 ml.
Except the blank group, the rest rats were modeled for 15 days and then their serum uric acid levels were detected. The rats were equally divided into several groups according to the detected uric acid levels thereof.
F-1C, F-2C and F-3A groups: each compound was taken orally at 3 doses, i.e., 2.5, 5 and 10 mg/kg; QD; and 10 animals for each dose group.
Febuxostat group: oral administration of 10 mg/kg, QD, and 10 animals.
Febuxostat ethyl ester group: oral administration of 10 mg/kg, QD, and 10 animals.
The blank group was not administrated with any drug. Each of the rest groups was orally administrated with oteracil potassium 1 g/kg and uric acid 0.3 g/kg and intraperitoneally injected with 0.1 g/kg uric acid (dissolved in 0.5% sodium carboxymethyl cellulose), once a day on schedule, for 15 days. 0.5 ml of blood samples was drawn from orbit before the experiment and […] after the modelling, respectively, to separated serum for determining serum uric acid levels.
After successful modeling, the rats were equally divided into several groups according to the serum uric acid values thereof, and then were intragastrically administrated with the test drugs. Three hours after the first administration, 0.5 ml of orbital venous blood was drawn from the orbit of the rats, centrifuged at 3000 RPM for 15 min, to obtain for determining the serum uric acid level of each rat.
Data were expressed by mean±standard deviation (′x±SD), and analyzed by Excel 7.0 and SPPS 13.0 for Windows software. Q-test was used for the comparison between groups, and the self-paired t-test was used for the comparison of a group before and after administration. It indicated significant difference when P<0.05.

[4] = system: ICR mice; conditions: for Autopsy results of survival animals / animal deaths within 24 hours from the administration / Abnormal reactions within 12 hours from ig administration: formal test; for Autopsy results of survival animals: 3000 mg/kg ig; for animal deaths within 24 hours from the administration: all dose groups; for animal deaths within 24 hours from the administration / Abnormal reactions within 12 hours from ig administration: febuxostat high-dose group; for Abnormal reactions within 12 hours from ig administration: F compounds 3000 mg/kg; for Number of dead animals: 10 mice; for death, preliminary experiments / toxic reactions, preliminary experiments: mice, intragastric 1600 mg/kg

SMILES | Serum uric acid level, Value after 3 h of drug administration ([1]; 10 mg/kg oral) | uric acid-lowering effect (in words) [1] | p, uric acid level 3 h after drug administration compared with the blank group [1] | LD50 at 14 days [2] | LD50 at 14 days ([2]; 3000 mg/kg) | Serum uric acid content, Value after 3 h of drug administration ([3]; 2.5 mg/kg oral) | Serum uric acid content, Value after 3 h of drug administration ([3]; 5 mg/kg oral) | Serum uric acid content, Value after 3 h of drug administration ([3]; 10 mg/kg oral) | Autopsy results of survival animals [4] | animal deaths within 24 hours from the administration [4] | Abnormal reactions within 12 hours from ig administration [4] | Number of dead animals ([4]; ig 3000 mg/kg) | death, preliminary experiments [4] | toxic reactions, preliminary experiments [4] | also measured
Cc1nc(-c2ccc(OCC(C)C)c(C#N)c2)sc1C(=O)OC(C)Cl (centres unmarked) [Compound F-1C] | 64.2 ± 28.1^a3b3 μmol/L | very obvious uric acid-lowering effects | no significant difference | 3000 mg/kg | ≥ 3000 mg/kg | 189.8 ± 25.3^a3 μmol/L | 146.9 ± 19.5^a3, b3 μmol/L | 100.1 ± 25.8^a3, b3, c3 μmol/L | No obvious abnormalities were observed in the organs | no animal deaths were observed | no abnormalities were observed | 0 | no animal died | no obvious toxicity symptom was observed | –
Cc1nc(-c2ccc(OCC(C)C)c(C#N)c2)sc1C(=O)OCCN(C)CCO [Compound F-3A] | 64.1 ± 16.1^a3b3 μmol/L | very obvious uric acid-lowering effects | no significant difference | 3000 mg/kg | ≥ 3000 mg/kg | 173.4 ± 32.7^a3, b3 μmol/L | 137.6 ± 24.3^a3, b3 μmol/L | 82.3 ± 16.8^a3, b3, c3 μmol/L | No obvious abnormalities were observed in the organs | no animal deaths were observed | no abnormalities were observed | 0 | no animal died | no obvious toxicity symptom was observed | –
Cc1nc(-c2ccc(OCC(C)C)c(C#N)c2)sc1C(=O)O [Febuxostat, 2-[3-cyano-4-isobutoxyphenyl]-4-methylthiazole-5-carboxylic acid, reference compound] | – | good effect on lowering uric acid | < 0.001 | 701 ± 47.6 mg/kg | – | – | – | 140.8 ± 33.5^a3, b3 μmol/L | – | several animals of the high-dose group of febuxotan died | – | – | caused death in several mice | – | Serum uric acid level, Value after 3 h of drug administration ([1]; 14 mg/kg oral): 86.6 ± 17.5^a3b3c3 μmol/L; Number of dead animals ([4]; ig 327.7 mg/kg): 0; Number of dead animals ([4]; ig 409.6 mg/kg): 0; Number of dead animals ([4]; ig 512 mg/kg): 1; Number of dead animals ([4]; ig 640 mg/kg): 3; Number of dead animals ([4]; ig 800 mg/kg): 6; Cause of death ([4]; mice after ig administration): toxicity to the urinary system
